Data from PubChem BioAssay (NCI).
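Five compound concentrations were applied to cells in 96-well plates for 48 hours; endpoints were derived by simple linear interpolation of the resulting dose-response curve. GI50 marks 50% less growth. Definition used: TGI = concentration required for complete inhibition of growth.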

Key:
Assay in all cases: DTP human tumour cell line panel, 48 h
HCT-15 colon = system: HCT-15 colon
UACC-62 melanoma = system: UACC-62 melanoma
HL-60(TB) leukemia = system: HL-60(TB) leukemia
SK-MEL-2 melanoma = system: SK-MEL-2 melanoma
SK-MEL-28 melanoma = system: SK-MEL-28 melanoma
SF-268 CNS = system: SF-268 CNS
OVCAR-5 ovarian = system: OVCAR-5 ovarian
CAKI-1 renal = system: CAKI-1 renal
A498 renal = system: A498 renal
NCI/ADR-RES ovarian = system: NCI/ADR-RES ovarian
SK-MEL-5 melanoma = system: SK-MEL-5 melanoma
SR leukemia = system: SR leukemia
SN12C renal = system: SN12C renal
HOP-62 NSCLC = system: HOP-62 NSCLC
SW-620 colon = system: SW-620 colon
MDA-MB-231 breast = system: MDA-MB-231 breast
HCC-2998 colon = system: HCC-2998 colon
MDA-MB-435 = system: MDA-MB-435
SF-295 CNS = system: SF-295 CNS
U251 CNS = system: U251 CNS
HT29 colon = system: HT29 colon
HCT-116 colon = system: HCT-116 colon
NCI-H460 lung = system: NCI-H460 lung
MALME-3M melanoma = system: MALME-3M melanoma
RXF 393 renal = system: RXF 393 renal
PC-3 prostate = system: PC-3 prostate
COLO 205 colon = system: COLO 205 colon
SF-539 CNS = system: SF-539 CNS

COc1cc(-c2ccc3ncnc(N4CCc5ccc(Cl)cc54)c3c2)cnc1Cl
GI50 (HCT-15 colon): 3.17 µM
TGI (HCT-15 colon): > 100 µM
GI50 (UACC-62 melanoma): 2.25 µM
TGI (UACC-62 melanoma): > 100 µM
GI50 (HL-60(TB) leukemia): 2.1 µM
TGI (HL-60(TB) leukemia): 9.97 µM
GI50 (SK-MEL-2 melanoma): 5.12 µM
TGI (SK-MEL-2 melanoma): > 100 µM
GI50 (SK-MEL-28 melanoma): 3.84 µM
TGI (SK-MEL-28 melanoma): 46.7 µM
GI50 (SF-268 CNS): 3.29 µM
TGI (SF-268 CNS): > 100 µM
GI50 (OVCAR-5 ovarian): 3.29 µM
TGI (OVCAR-5 ovarian): > 100 µM
GI50 (CAKI-1 renal): 1.66 µM
TGI (CAKI-1 renal): 12.7 µM
GI50 (A498 renal): 1.54 µM
TGI (A498 renal): 7.16 µM
GI50 (NCI/ADR-RES ovarian): 2.23 µM
TGI (NCI/ADR-RES ovarian): > 100 µM
GI50 (SK-MEL-5 melanoma): 2.15 µM
TGI (SK-MEL-5 melanoma): 9.36 µM
GI50 (SR leukemia): 4.08 µM
TGI (SR leukemia): > 100 µM
GI50 (SN12C renal): 3.34 µM
TGI (SN12C renal): > 100 µM
GI50 (HOP-62 NSCLC): 6.12 µM
TGI (HOP-62 NSCLC): 81.3 µM
GI50 (SW-620 colon): 3.06 µM
TGI (SW-620 colon): > 100 µM
GI50 (MDA-MB-231 breast): 3.94 µM
TGI (MDA-MB-231 breast): 20.8 µM
GI50 (HCC-2998 colon): 3.46 µM
TGI (HCC-2998 colon): > 100 µM
GI50 (MDA-MB-435): 3.32 µM
TGI (MDA-MB-435): > 100 µM
GI50 (SF-295 CNS): 2.62 µM
TGI (SF-295 CNS): 24.6 µM
GI50 (U251 CNS): 4.71 µM
TGI (U251 CNS): > 100 µM
GI50 (HT29 colon): 2.88 µM
TGI (HT29 colon): 16.4 µM
GI50 (HCT-116 colon): 2.89 µM
TGI (HCT-116 colon): > 100 µM
GI50 (NCI-H460 lung): 2.95 µM
TGI (NCI-H460 lung): > 100 µM
GI50 (MALME-3M melanoma): 4.6 µM
TGI (MALME-3M melanoma): 43.3 µM
GI50 (RXF 393 renal): 1.78 µM
TGI (RXF 393 renal): 6.77 µM
GI50 (PC-3 prostate): 2.52 µM
TGI (PC-3 prostate): > 100 µM
GI50 (COLO 205 colon): 4.21 µM
TGI (COLO 205 colon): > 100 µM
GI50 (SF-539 CNS): 3.06 µM
